Here are results for 14 compounds from ChEMBL document CHEMBL3045549, “Solvent-free, green and efficient synthesis of pyrano[4, 3-b]pyrans by grinding and their biological evaluation as antitumor and antioxidant agents” (Med Chem Res, 2013).

The subject of assay [1] is Radical scavenging activity. The assay is described as follows: Antioxidant activity assessed as inhibition of DPPH radical after 30 mins by spectrophotometric analysis. The format is functional. (In general: Loss of DPPH colour is used to gauge radical scavenging.)
A further assay deals with MCF7. Briefly: Cytotoxicity against human MCF7 cells after 96 hrs by MTT assay. To be noted: MCF7, 96 h. The format is functional, cell-based. Background: Formazan colour is commonly taken as a measure of viable cells.

What is called IC50 is the concentration at which inhibition is half-maximal. For the compound `O=C1O[C@H]([C@@H](O)CO)C(O)=C1O` [ASCORBIC ACID], the IC50 in assay [1] came out at 106 µM. As to `Cc1cc2c(c(=O)o1)C(c1ccc([N+](=O)[O-])cc1)C(C#N)=C(N)O2` (configuration not stated), the IC50 turned out to be 816 µM in assay [1] and 42 µM in the assay with MCF7. The matching figures for `COc1ccc(C2C(C#N)=C(N)Oc3cc(C)oc(=O)c32)cc1` (configuration not stated): 520 µM and 57 µM. The matching figures for `Cc1cc2c(c(=O)o1)C(c1cccs1)C(C#N)=C(N)O2` (configuration not stated): 739 µM and 15 µM.

As to `Cc1cc2c(c(=O)o1)C(c1ccc(Cl)s1)C(C#N)=C(N)O2` (configuration not stated), the results for the IC50 (in assay [1]; in the assay with MCF7) were 616 µM and 12 µM, respectively. On to `Cc1cc2c(c(=O)o1)C(c1c[nH]c3ccc(C#N)cc13)C(C#N)=C(N)O2` (configuration not stated), for which the IC50 came to 567 µM in assay [1] and 7 µM with MCF7. Regarding `Cc1cc2c(c(=O)o1)C(c1ccc(C)s1)C(C#N)=C(N)O2` (configuration not stated), the IC50 in assay [1] was 943 µM; in the assay on MCF7, 22 µM. Consider `Cc1cc2c(c(=O)o1)C(c1c[nH]c3ccccc13)C(C#N)=C(N)O2` (configuration not stated), for which the results for the IC50 (in assay [1]; in the assay with MCF7) were 339 µM and 10 µM, respectively. For the compound `Cc1cc2c(c(=O)o1)C(c1ccc(Br)cc1)C(C#N)=C(N)O2` (configuration not stated), the IC50 in assay [1] was found to be 512 µM; in the assay on MCF7, 35 µM. The matching figures for `Cc1cc2c(c(=O)o1)C(c1ccc(Cl)cc1)C(C#N)=C(N)O2` (configuration not stated): 487 µM and 32 µM. As for `Cc1cc2c(c(=O)o1)C(c1ccco1)C(C#N)=C(N)O2` (configuration not stated), the IC50 came out at 228 µM in assay [1] and 27 µM in the assay with MCF7. On the same counts, the results for `Cc1cc2c(c(=O)o1)C(c1c[nH]c3ccc(Br)cc13)C(C#N)=C(N)O2` (configuration not stated) are 440 µM and 5 µM.

Regarding `Cc1ccc(C2C(C#N)=C(N)Oc3cc(C)oc(=O)c32)cc1` (configuration not stated), the IC50 is 634 µM in assay [1] and 54 µM with MCF7. For the compound `Cc1cc2c(c(=O)o1)C(c1ccccc1)C(C#N)=C(N)O2` (configuration not stated), the IC50 turned out to be 769 µM in assay [1] and 46 µM in the assay with MCF7.
